Data as given in patent US8729053B2, “Nuclear factor kappa B pathway inhibitor composition and use of same” (The United States of America, as represented by the …, priority 2008, dated 2014).
Structures can show the parent of a compound that is named as a salt.

Assays:
[1] = system: uPAR promoter; assay: uPAR promoter luciferase reporter assay in HEK293 cells; format: cell-based, human; details: TPA 10 ng/ml 18 hours
Method: (§1) All expression plasmids were transiently transfected into HEK293 cells in a 96-well plate (0.1 μg/well) by using Effectene transfection reagent (Qiagen, Valencia, Calif.) according to the manufacturer's manual. HEK293 cells were maintained in Dulbecco's modified Eagle medium (Sigma, St. Louis, Mo.) supplemented with 10% fetal bovine serum (Atlanta Biologicals, Lawrenceville, Ga.) and incubated at 37° C. in a 5% CO2 incubator. After 24 hrs incubation, the medium was changed to DMEM with 0.2% FBS, and the transfectants were exposed to various concentrations of compound I and TPA (10 ng/ml). Cells were lysed with passive lysis buffer and the luciferase assay was performed using the Firefly-Luciferase reporter assay system (Promega, Madison, Wis.) and MLX Luminometer (Dynex Technology, Chantilly, Va.).
(§2) Three different luciferase reporter genes, AP-1 reporter containing four times TRE consensus originated from GCN4 and SRE reporter purchased from Stratagene (La Jolla, Calif.) respectively are as described previously (Suzukawa et al., Environ. Health Perspect., 2002, 110, 865-70). […]
(§3) Inhibition of NFκB transactivation would be expected to result in suppressed expression of genes whose transcription depends on NFκB. Quantitative RT-PCR was used to measure endogenous levels of IL-6 mRNA, transcribed from a gene whose transcription depends on NFκB but not AP-1. […]

[2] = system: SRE (Serum response element); assay: SRE luciferase reporter assay in HEK293 cells; format: cell-based; details: HEK293, TPA 10 ng/ml 18 hours
Method: as §1
as §2, with “865-70). NFκB reporter is driven by five times NFκB responsive element inserted into Cis-reporter backbone (Stratagene, La Jolla, Calif.).” for “865-70).”

[3] = system: VEGF promoter; assay: VEGF promoter luciferase reporter assay in HEK293 cells; format: cell-based, human; details: TPA 10 ng/ml 18 hours
Method: as §1, §2, §3

[4] = system: p65; assay: Immunoblot of phosphorylated p65; format: cell-based
Method: (§4) To measure endogenous level of several proteins in response to TPA induction and compound I, HEK293 cells were lysed with RIPA buffer (10 mM Tris-HCl pH 7.5, 1 mM EDTA, 0.1% sodium dodecyl sulfate, 0.1% deoxycholate, and protease inhibitor). Whole cell extracts were subjected to immunoblot analysis with the following antibodies: p65 (F-6), p50 (E-10), p52 (C-5), RelB (C-19), IκBα (C-21), PCNA (F-2) were obtained from Santa Cruz Biotechnology (Santa Cruz, Calif.). IKKα, IKKβ, IKKγ, phospho-IκBα, phospho-IKKα/β, phospho-IKKγ, pohospho-Stat3 (Tyr 705 and Ser 727), phospho-p65 (Ser536 and Ser276), phospho-p44/42, phospho-JNKs were purchased from Cell Signaling (Danvers, Mass.), and α-tubulin from Sigma (St. Louis, Mo.). Nuclear and cytoplasmic extracts were prepared with HEK293 cells by NE-PER Nuclear and Cytoplasmic Extraction Reagents (Pierce Biotechnology, Rockford, Ill.) according to the manufacturer's protocol.

[5] = system: JNK; assay: Immunoblot of TPA-induced JNK phosphorylation; format: cell-based; details: 17.0 μM and 8.5 μM pretreatment
Method: as §4
The selectivity of compound I was evaluated by measuring phosphorylation of proteins involved in the AP-1 induction pathway. AP-1 dependent transcription can be activated by MAP Kinases JNK, ERK 1/2 (p44/42). […] At these concentrations compound I, in contrast, completely repressed major regulators in the NFκB activation pathway. JNKs are activated by a variety of environmental stresses responsible for AP-1 activation through c-Jun phosphorylation. […]

SMILES: Cc1cc(N)ccc1N=Nc1ccc(S(=O)(=O)CCOS(=O)(=O)O)cc1 [compound I, 2-(4-((4-amino-2-methylphenyl)diazenyl)phenylsulfonyl)ethyl hydrogen sulfate]
- uPAR luciferase activity [1]: dose-dependent inhibition
- TPA-induced SRE luciferase activity [2]: repressed but to a lesser degree than AP-1
- Luciferase activity driven by VEGF promoter [3]: did not significantly affect
- Phosphorylation of p65 at Ser536 [4]: inhibited
- Phosphorylation of p65 at Ser536 and Ser276 ([4]; FIG. 7): decreased
- TPA-induced phosphorylation of endogenous JNK [5]: no repression
